Where two headings read alike, the source gives them in different places.
Legend:
[1] = Example 5 trial: safety analyses (adverse events); conditions: one severe COVID-19, one aspiration (SARS-CoV-2 negative); not considered related to study medication
From the text: (§1) After randomization, eligible subjects underwent a physical examination, collection of nasopharyngeal swabs, and blood and urine samples for laboratory safety testing and assessment of SARS-CoV-2 antibody titers. Study drug was dispensed, and subjects were followed for 28 days. Subjects were instructed to complete electronic diaries recording oral temperature twice daily and symptom severity once daily in the evening for 21 days and were contacted daily by telephone by site staff on study days 2-7 and 28 to verify compliance and screen for progression to severe illness or other complications. Repeat nasopharyngeal swabs were collected on study days 4 and 10. Follow up blood and urine samples for laboratory safety testing and assessment of SARS-CoV-2 antibody titers were collected on study day 22. Subjects were allowed to use acetaminophen and/or dextromethorphan for symptom relief along with standard-of-care rescue medications. Adverse events were collected continuously throughout the study and monitored until the events resolved.
(§2) Efficacy analyses were based on a modified intention to treat (mITT) population of subjects testing positive for SARS-CoV-2 at baseline.

[2] = test system: COVID-19; conditions: 600 mg twice daily for seven days; hospitalized moderate to severe COVID-19; cited from earlier work
[3] = in vivo
From the text: as §1, §2

[4] = test system: SARS-CoV-2; assay type: in vivo
[5] = Example 1 trial: adverse events / tolerability; assay type: in vivo, human; conditions: 600 mg orally twice daily
[6] = test system: SARS-CoV-2 RNA; assay type: in vivo; conditions: for Mean (SD) Viral Load Change from Baseline / Percent Positive for SARS-CoV-2 RNA: nasopharyngeal swabs; for Percent Positive for SARS-CoV-2 RNA: 177 samples
[7] = 133 subjects with moderate illness at baseline
[8] = all SARS-CoV-2-positive subjects (mITT)
[9] = all SARS-CoV-2-positive subjects (mITT), 600 mg twice daily for 5 days
[10] = all SARS-CoV-2-positive subjects (mITT), listed as NTZ
[11] = all SARS-CoV-2-positive subjects (mITT), listed as nitazoxanide
[12] = subgroup 'May Be' or 'At Increased Risk' for severe COVID-19 per CDC (protocol-defined stratification factor)
[13] = subgroup At High Risk of progressing to severe COVID-19 and/or hospitalization (per EUA documents for monoclonal antibodies)
[14] = subgroup At Increased Risk for severe COVID-19 per CDC

In the case of CC(=O)Oc1ccccc1C(=O)Nc1ncc([N+](=O)[O-])s1 [Nitazoxanide, 2-(acetolyloxy)-N-(5-nitro-2-thiazolyl) benzamide], the “subjects who died during the study” value [1] is listed as “Two”, the “duration of supplemental oxygen vs placebo” value [2] is listed as “reductions” and the “rate of mechanical ventilation vs placebo” value [2] is listed as “reductions”. For the same compound, the “rate of mortality vs placebo” value [2] was “reductions”, the “time to hospital discharge vs placebo” value [2] was “reductions” and the “subjects reporting at least one adverse event (%)” value ([3]; human) was 13.3%. The “subjects reporting diarrhea (%)” value ([3]; human) was 3.4%, the “subjects reporting at least one adverse event (number)” value [3] was “Sixty-three” and the “subjects reporting serious adverse events” value [3] was “Two”. The “subjects who discontinued study medication due to adverse events” value [3] was “Two”, the safety and tolerability ([3]; po) was “safe and well tolerated” and the “subjects progressing to severe illness” value ([4]; 68 subjects with moderate illness at baseline in nitazoxanide arm, placebo two of 65) was “None and none”. For the same compound, the TSR vs placebo [4, 7] was “longer”, the “time to return to usual health vs placebo” value [4, 7] was “longer” and the “relative reduction in rate of hospitalization, emergency room visit or death vs placebo” value (from here on “relative reduction in rate”) [4, 8] was 82%. For the same compound, the “relative reduction of progression to severe COVID-19 vs placebo” value (shortened to “relative reduction of progression”) [4, 8] was 85%, the “subjects experiencing hospitalization, emergency room visit or death (%)” value (from here on “subjects experiencing hospitalization … (%)”) [4, 8] was 0.5% and the “subjects experiencing hospitalization, emergency room visit or death (n/N)” value (from here on “subjects experiencing hospitalization … (n/N)”) [4, 8] was 1/184. For the same compound, the “subjects progressing to severe COVID-19 (%)” value (from here on “subjects progressing … (%)”) [4, 9] was 0.5%, the “subjects progressing to severe COVID-19 (n/N)” value (shortened to “subjects progressing … (n/N)”) [4, 9] was 1/184 and the “subjects progressing … (%)” value ([4]; all SARS-CoV-2-positive subjects (mITT), 600 mg twice daily for 5 days, listed as NTZ) was “(0.5%)”. For the same compound, the “subjects progressing … (%)” value ([4]; all SARS-CoV-2-positive subjects (mITT), 600 mg twice daily for 5 days, listed as nitazoxanide) was 0.5%, the “relative reduction in rate” value [4, 10] was 82% and the “relative reduction of progression” value [4, 10] was 85%. For the same compound, the “subjects experiencing hospitalization … (%)” value [4, 10] was “(0.5%)”, the “relative reduction in rate” value [4, 11] was 82% and the “relative reduction of progression” value [4, 11] was 85%. For the same compound, the “Median (IQR) time from first dose to sustained response (TSR)” value ([4]; all mITT subjects, placebo 12.35 (7.18->21), p=0.88) was 13.28 (6.26->21) days, the “relative reduction in rate” value [4, 12] was 81% and the “relative reduction of progression” value [4, 12] was 84%. The “subjects experiencing hospitalization … (%)” value [4, 12] was “(0.9%)”, the “subjects experiencing hospitalization … (n/N)” value [4, 12] was 1/112 and the “subjects progressing … (%)” value [4, 12] was “(0.9%)”. The “subjects progressing … (n/N)” value [4, 12] was 1/112, the “relative reduction in rate” value [4, 13] was 77% and the “relative reduction of progression” value [4, 13] was 81%. For the same compound, the “subjects experiencing hospitalization … (%)” value [4, 13] was “(1.7%)”, the “subjects experiencing hospitalization … (n/N)” value [4, 13] was 1/60 and the “subjects progressing … (%)” value [4, 13] was “(1.7%)”. For the same compound, the “subjects progressing … (n/N)” value [4, 13] was 1/60, the “relative reduction in rate” value [4, 14] was 81% and the “relative reduction of progression” value [4, 14] was 83%. The “subjects experiencing hospitalization … (%)” value [4, 14] was “(1.0%)”, the “subjects experiencing hospitalization … (n/N)” value [4, 14] was 1/104 and the “subjects progressing … (%)” value [4, 14] was “(1.0%)”. For the same compound, the “subjects progressing … (n/N)” value [4, 14] was 1/104, the “median TSR” value ([4]; subjects with mild illness at baseline, n=116, placebo 13.4) was 10.3 days and the “reduction of median time to return to usual health vs placebo” value ([4]; subjects with mild illness at baseline, p=0.0075) was 5.2 days. The “reduction of median TSR (time to sustained clinical recovery) vs placebo” value ([4]; subjects with mild illness at baseline, p=0.0932) was 3.1 days, the “median time from first dose until subjects reported returning to usual health” value ([4]; subjects with mild illness at baseline, placebo 18.4) was 13.2 days and the “adverse event: mild chromaturia, subjects” value ([5]; placebo 1.0%) was 14.6%. For the same compound, the “adverse event: diarrhea, subjects” value ([5]; placebo 4.9%) was 6.6%, the “Mean (SD) Viral Load Change from Baseline” value ([6]; Day 4) was −0.70 (1.573) log10 copies/mL and the “Percent Positive for SARS-CoV-2 RNA” value ([6]; Day 4) was 94%. For the same compound, the “Mean (SD) Viral Load Change from Baseline” value ([6]; Day 10) was −2.49 (1.582) log10 copies/mL, the “Percent Positive for SARS-CoV-2 RNA” value ([6]; Day 10) was 73% and the “Viral Load Day 4” value ([6]; single NTZ-treated subject who progressed to severe COVID-19, Day 1 value 7.39) was 7.39/4.79 log10 RNA copies/mL.

Source: patent US20230330069A1, “USE OF THIAZOLIDES AGAINST CORONAVIRUSES” (Romark Laboratories, L.C., priority 2020, published 2023)
